Patent US7851650B2, “Compounds for treating inflammation and pain” (Olatec Industries LLC, priority 2009, dated 2010)

System: arachidonic acid induced ear swelling
Test: topical arachidonic acid induced ear swelling model in mice
Assay type: in vivo
Details: male ICR mice, applied 30 min before and 15 min after arachidonic acid, active compound 2 mg/ear x 2, indomethacin 3 mg/ear x 2, relative to lauryl lactate vehicle
Description: Male ICR mice weighing 22±2 g were used in the experiment. Arachidonic acid (2 mg in 20 μL acetone) was applied topically onto the anterior and posterior surfaces of the right ear of test animals. […] Ear swelling was then measured using a Dyer model micrometer gauge at 60, 90 and 120 minutes after arachidonic acid induction of ear edema as an index of inflammation.

Compound | %, ear swelling inhibition after arachidonic acid, 60 min. | %, ear swelling inhibition after arachidonic acid, 90 min. | %, ear swelling inhibition after arachidonic acid, 120 min.
CS(=O)(=O)CCC(NCl)C(=O)O (stereo not drawn) [Active compound/lauryl lactate, 2-N chloro-4-methylsulfonyl-butyric acid] | 33% | 31% | 34%
COc1ccc2c(c1)c(CC(=O)O)c(C)n2C(=O)c1ccc(Cl)cc1 [Indomethacin/lauryl lactate, indomethacin] | 71% | 65% | 70%
